Data taken from patent US11174233B1, “Anti-cancer compounds having oxazolone derivation” (King Abdulaziz University, priority 2019, dated 2021).
Where two headings read alike, the source gives them in different places.

Experiments:
[1] = test system: HL-60 leukemia cells; assay: Apoptosis detection by caspase 3 activity in HL-60 cells; format: cell-based, human
Experimental: (§1) HL-60 were purchased from CLS Cell Line Service GmbH (Eppelheim, Germany) and cultured in Roswell Park Memorial Institute-1640 medium (RPMI-1640; Thermo Fisher Scientific, Inc; Waltham, Mass., USA) supplemented with 10% fetal bovine serum (FBS; Thermo Fisher Scientific) and ciprofloxacin (10 μg/mL; Cipla Limited; Mumbai, India), at 37° C. with 5% CO2 in a humidified incubator.
The caspase family of cysteine proteases are important regulators in the apoptosis. Caspase 3 belongs to the effector (caspase 3, 6 and 7) class of proteases and it is a key protease that is activated during early stages of apoptosis. […] The activated caspase 3 is a marker for cell apoptosis that proteolytically cleaves and activates other caspases and intracellular targets [Patel, T.; Gores, G. J.; Kaufmann, S. H., The role of proteases during apoptosis. FASEB journal: official publication of the Federation of American Societies for Experimental Biology 1996, 10 (5), 587-97].
FITC conjugated active caspase-3 antibody (BD biosciences, USA) was used to detect the active form of caspase 3 in the cells undergoing apoptosis. […] The collected cells were washed twice in cold 1×PBS and then re-suspended in a 0.5 mL BD Cytofix/Cytoperm solution followed by 20 min incubation on ice. After incubation, cells were washed twice in a BD Perm/Wash buffer (1×) and then labelled with 5 μL of FITC rabbit anti-caspase 3 antibodies. The labelled cells were washed again with wash buffer and re-suspended in a 0.5 mL buffer and analyzed by acquiring a minimum of 5000 events on the FACS Aria III cell analyzer and sorter.

[2] = test system: MCF-7 (breast) cancer cells; assay: SRB cytotoxicity assay against MCF7; format: cell-based, human; details: Homo sapiens, 72 h treatment
Experimental: (§2) MCF-7 (breast) and PC3 (prostate) cancer cells were each grown in RPMI-1640 medium supplemented with 10% heat inactivated FBS, 50 units/mL of penicillin, and […] of streptomycin. The cultures were maintained at 37° C. in a humidified atmosphere containing 5% CO2. The cells were maintained as “monolayer culture” by serial sub-culturing.
(§3) Cytotoxicity was determined using SRB method as previously described by Skehan et al. [Skehan P.; Storeng R.; Scudiero D.; Monks A.; McMahon J.; al., V. D. e., New colorimetric cytotoxicity assay for anticancer drug screening. […] Exponentially growing cells were collected using 0.25% Trypsin-EDTA and seeded in 96-well plates at 1000-2000 cells/well in RPMI-1640 supplemented medium. After 24 h, cells were incubated for 72 h with various concentrations of the tested compounds. Following 72 h treatment, the cells would be fixed with 10% trichloroacetic acid for 1 h at 4° C. Wells were stained for 10 min at room temperature with 0.4% SRB dissolved in 1% acetic acid. The plates were air dried for 24 h and the dye was solubilized with Tris-HCl for 5 min on a shaker at 1600 rpm. The optical density (OD) of each well was measured spectrophotometrically at 564 nm with an ELISA microplate reader (ChroMate-4300, FL, USA). The IC50 values were calculated according to the equation for Boltzman sigmoidal concentration—response curve using the nonlinear regression fitting models (Graph Pad, Prism Version 5).

[3] = test system: HL-60 leukemia cells; assay: Cell cycle analysis of Hoechst 33342 stained HL-60 cells by flow cytometry; format: cell-based, human; details: 48 h
Experimental: as §1
The cells (3.5×10^5) were incubated with two different concentrations of KIM-161C at 37° C. for 48 h. Subsequently, the cells were collected and washed twice with ice-cold PBS (1×). The washed cells were fixed on ice for 20 min using a fixation buffer containing paraformaldehyde. Hoechst 33342 (10 μg/mL; Thermo Fisher Scientific, Inc.) was used for staining. The cells were then incubated in the dark for 30 min on ice. A minimum total of 20,000 events were acquired using a BD FACSAria III flow cytometer. Flowlogic version 7.2.1 software (Inivai Technologies, Victoria, Australia) was used to obtain the percentages of cells in the G1, S, and G2/M phases in the singlet-gated population.

[4] = test system: HL-60 leukemia cells; assay: CellTiter-Blue cell viability assay on HL-60; format: cell-based; details: Homo sapiens, HL-60 cells, 48 h
Experimental: as §1
The CellTiter®-Blue Cell Viability assay was acquired from Promega Corporation (Madison, Wis., USA). Cell viability assay was performed as follows. The cells (10^4/well) were incubated with a concentration gradient of KIM-161C and KIM-241C ranging from 0.01 to 100 in 96-well plates for 48 h at 37° C. Subsequently, 20 μL CellTiter®-Blue Cell Viability reagent was added to each well and incubated for an additional 2 h for the development of fluorescence. The fluorescence emission was measured at 590 nm using the SpectraMax® i3× Multi-Mode microplate reader (Molecular Devices, LLC; San Jose, Calif., USA.) and plotted against drug concentrations to determine the mean inhibitory concentration of KIM-161C and KIM-241C producing 50% decrease in cell viability (IC50).

[5] = test system: PC3 (prostate) cancer cells; assay: SRB cytotoxicity assay against PC3; format: cell-based, human; details: Homo sapiens, 72 h treatment
Experimental: as §2, §3

| IC50 ([4]; read-out: IC50 value, HL-60 cell viability) [µM] | melting point [°C] | IC50 ([4]; read-out: IC50 value, HL-60 cell viability (could not be obtained even at this concentration)) [µM] | SMILES | increase in the cells undergoing apoptosis as compared to the basal apoptosis ([1]; 362.5 nM, 24 h) | increase in the cells undergoing apoptosis as compared to the basal apoptosis ([1]; 362.5 nM, 48 h) | increase in the cells undergoing apoptosis as compared to the basal apoptosis ([1]; 725 nM, 24 h) | increase in the cells undergoing apoptosis as compared to the basal apoptosis ([1]; 725 nM, 48 h) [fold] | IC50 [2] [µM] | cells in the G1 phase ([3]; 362.5 nM) | increase in the cells in G2/M stage as compared to the control ([3]; 725 nM) [fold] | IC50 [5] [µM] |
| --- | --- | --- | --- | --- | --- | --- | --- | --- | --- | --- | --- |
| 0.263 | – | – | COc1ccc(/C=C2\N=C(C)N(c3ccc(CC(=O)NCc4ccccc4)cc3)C2=O)cc1 [KIM-161C, (Z)—N-benzyl-2-(4-(4-(4-methoxybenzylidene)-2-methyl-5-oxo-4,5-dihydro-1H-imidazol-1-yl)phenyl)acetamide] | more than 2 fold | more than 2 fold | more than 9.5 fold | > 8.45 | 3.5 | increase | 3 | – |
| – | 199 to 200 | > 20 | O=C(Cc1ccc(N2C(=O)/C(=C/c3ccco3)N=C2c2ccccc2)cc1)NCc1ccccc1 [KIM-241C, (Z)—N-benzyl-2-(4-(4-(furan-2-ylmethylene)-5-oxo-2-phenyl-4,5-dihydro-1H-imidazol-1-yl)phenyl)acetamide] | – | – | – | – | 0.145 | – | – | 0.243 |
